In BindingDB's records for doi:10.7270/Q2F769WQ (University of Pittsburgh, 2007):

Molecular target: T1, Dual specificity protein phosphatase 1 (Homo sapiens, UniProt P28562)
T1 sequence (P28562 whole entry): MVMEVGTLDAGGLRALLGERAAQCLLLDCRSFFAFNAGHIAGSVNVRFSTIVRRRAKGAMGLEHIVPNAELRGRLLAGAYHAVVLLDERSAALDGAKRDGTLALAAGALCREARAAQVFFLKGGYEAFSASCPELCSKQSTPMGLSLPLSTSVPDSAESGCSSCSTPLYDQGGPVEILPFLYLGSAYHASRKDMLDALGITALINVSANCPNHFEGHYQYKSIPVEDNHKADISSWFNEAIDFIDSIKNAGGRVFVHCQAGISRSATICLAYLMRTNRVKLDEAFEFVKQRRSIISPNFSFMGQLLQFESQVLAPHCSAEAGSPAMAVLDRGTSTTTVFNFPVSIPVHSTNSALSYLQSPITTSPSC
Assay: concentration-response of DUSP1 blockers – biochemical, in vitro, confirmation, dose response (AID 551)
Details: pH 7; 22 °C

SMILES | IC50 [µM]
Cc1ccc(S(=O)(=O)NCC(C)NS(=O)(=O)c2ccc(C)cc2)cc1 (configuration not stated) [4-methyl-N-[2-(tosylamino)propyl]benzenesulfonamide] | > 50
COC(=O)C1C(C)=NC2=C(C(=O)c3ccccc32)C1c1ccc(-c2ccc(C(=O)O)cc2)o1 (configuration not stated) [4-{5-[3-(methoxycarbonyl)-2-methyl-5-oxo-4,5-dihydro-1H-indeno[1,2-b]pyridin-4-yl]-2-furyl}benzoic acid] | > 50
c1ccc(SCc2nc(-c3ccncc3)no2)cc1 [4-{5-[(phenylthio)methyl]-1,2,4-oxadiazol-3-yl}pyridine] | > 50
CC(C)(C)N1C(=O)Cc2c1nc(N)c1c(N)nc(N3CCCCC3CO)c(C#N)c21 (configuration not stated) [5,6-bis(azanyl)-3-tert-butyl-8-[2-(hydroxymethyl)piperidin-1-yl]-2-oxidanylidene-1H-pyrrolo[2,3-c][2,7]naphthyridine-9-carbonitrile] | > 50
COc1cc(/C=C(/C#N)c2ccc(F)cc2)ccc1OCc1ccc(C(=O)O)o1 [5-({4-[2-cyano-2-(4-fluorophenyl)vinyl]-2-methoxyphenoxy}methyl)-2-furoic acid] | > 50
COc1ccc(Br)cc1C=c1sc2nc(-c3ccco3)nn2c1=O [5-[(5-bromanyl-2-methoxy-phenyl)methylidene]-2-(furan-2-yl)-[1,3]thiazolo[3,2-b][1,2,4]triazol-6-one] | 4.49
CCOc1cc(/C=C(/C#N)c2ccc(F)cc2)ccc1OCc1ccc(C(=O)O)o1 [5-[[4-[(E)-2-cyano-2-(4-fluorophenyl)ethenyl]-2-ethoxyphenoxy]methyl]furan-2-carboxylic acid] | 36.1
N#Cc1c(NC(=O)c2ccc(Br)o2)n(-c2ccccc2)c2nc3ccccc3nc12 [5-bromanyl-N-(3-cyano-1-phenyl-pyrrolo[3,2-b]quinoxalin-2-yl)furan-2-carboxamide] | 14
Cc1cccc(N2CCN(C(=O)Cc3c(C(=O)O)[nH]c4ccc(Cl)cc34)CC2)c1C [5-chloranyl-3-[2-[4-(2,3-dimethylphenyl)piperazin-1-yl]-2-oxidanylidene-ethyl]-1H-indole-2-carboxylic acid] | 25.8
CCCCCNC(=O)c1ccc2c(=O)[nH]c3c(C(=O)NCC4CCCO4)sc(=S)n3c2c1 (configuration not stated) [5-oxo-N3-(2-oxolanylmethyl)-N8-pentyl-1-sulfanylidene-4H-thiazolo[3,4-a]quinazoline-3,8-dicarboxamide] | 38.4
COc1ccc(-c2cn3c(C)c(C(=O)Nc4cccc(C)n4)sc3n2)cc1 [6-(4-methoxyphenyl)-3-methyl-N-(6-methyl-2-pyridinyl)-2-imidazo[2,1-b]thiazolecarboxamide] | > 50
Cc1ccc(C)c(-n2nnnc2SCC(=O)c2ccc3c(c2)NC(=O)CO3)c1 [6-[2-[1-(2,5-dimethylphenyl)tetrazol-5-yl]sulfanylacetyl]-4H-1,4-benzoxazin-3-one] | > 50
CN1Cc2cc(C(=O)c3cc(Cl)cc(CSc4ncccn4)c3O)cnc2NC1=O [6-[5-chloranyl-2-oxidanyl-3-(pyrimidin-2-ylsulfanylmethyl)phenyl]carbonyl-3-methyl-1,4-dihydropyrido[2,3-d]pyrimidin-2-one] | > 50
Cc1nc2c(C(=O)NCCC3=CCCCC3)c[nH]n2c(=O)c1Cl [6-chloro-N-(2-cyclohex-1-en-1-ylethyl)-7-hydroxy-5-methylpyrazolo[1,5-a]pyrimidine-3-carboxamide] | 31.1
O=C1CC(c2ccccc2)c2cc(O)ccc2O1 (configuration not stated) [6-hydroxy-4-phenyl-3,4-dihydro-2H-1-benzopyran-2-one] | 49.2
O=C(c1ccc2c(=O)n(C3CCCC3)c(=S)[nH]c2c1)N1CCN(C2CCCCC2)CC1 [7-[(4-cyclohexyl-1-piperazinyl)-oxomethyl]-3-cyclopentyl-2-sulfanylidene-1H-quinazolin-4-one] | > 50
O=c1c2ccc[nH]c-2c(Nc2ccc(S(=O)(=O)N3CCCCCC3)cc2)n1Cc1ccccc1 [7-[[4-(azepan-1-ylsulfonyl)phenyl]amino]-6-(phenylmethyl)-7H-pyrrolo[3,4-b]pyridin-5-one] | > 50
CCCCOc1ccccc1P(=O)(O)CP(=O)(c1ccccc1)c1ccccc1 [(2-butoxyphenyl)-(diphenylphosphorylmethyl)phosphinic acid] | > 50
O=C(c1ccc(-c2ccccc2)cc1)N1CCN(Cc2ccccn2)CC1 [(4-phenylphenyl)-[4-(2-pyridinylmethyl)-1-piperazinyl]methanone] | > 50
O=C(c1cccs1)c1no[n+]([O-])c1C(=O)c1cccs1 [(5-oxidanidyl-4-thiophen-2-ylcarbonyl-1,2,5-oxadiazol-5-ium-3-yl)-thiophen-2-yl-methanone] | 3.49
Cc1cc2n(n1)SC(Nc1ccccc1)N2 (configuration not stated) [(6-methyl-2,5-dihydropyrazolo[1,5-b][1,2,4]thiadiazol-2-yl)-phenyl-amine] | > 50
Nc1c(N2CCCC2)cc(Cl)c2nonc12 [(7-chloro-5-pyrrolidino-benzofurazan-4-yl)amine] | > 50
[O-]/[N+](=C/c1ccc(F)cc1)c1ccccc1 [(E)-(4-fluorobenzylidene)(phenyl)azane oxide] | > 50
CC1=C(/C=C/C(C)=C/C=C/C(C)=C/C(=O)O)C(C)(C)CCC1 [ALL-TRANS-RETINOIC ACID] | 27.1
COCCCn1c(N)c(C(=O)NCCC(C)C)c2nc3ccccc3nc21 [MLS000041744] | 26.2
COC(=O)N(c1ccc(OC)cc1)P1(=S)OCCC(C)O1 (configuration not stated) [MLS000043492] | > 50
CCOC(=O)c1ccc2c(c1)C1C=CCC1C(C(=O)O)N2 (configuration not stated) [MLS-0025126.0001] | 15.8
O=C(NC1(O)C(=O)c2ccccc2C1=O)c1ccccc1 [N-(2-hydroxy-1,3-dioxo-2-indenyl)benzamide] | 14.2
O=C(Nc1cccc(-c2nc3ccccc3[nH]2)c1)c1cccc(NC(=O)c2ccco2)c1 [N-[3-[[3-(1H-benzimidazol-2-yl)phenyl]carbamoyl]phenyl]furan-2-carboxamide] | > 50

Continued, values first:

IC50 [µM] | SMILES
> 50 | CCCCNC(=O)CSc1nnc(-c2ccco2)n1C [MLS000033335]
> 50 | CC(=O)[C@@H]1[C@@H]2C(=O)N(c3ccc(F)c(Cl)c3)C(=O)[C@@H]2C2c3ccccc3C=CN21 (some centres not stated) [MLS000040594]
> 50 | O=C(NC1CC1)c1c[nH]c2ccc(S(=O)(=O)Nc3cccc(C(F)(F)F)c3)cc2c1=O [MLS000046685]
11.4 | CCn1c(SCC(=O)Nc2ccc3c(c2)c2ccccc2n3CC)nnc1-c1ccco1 [MLS000050867]
> 50 | CC(NC(=O)c1ccc2c(c1)OCO2)C1CCCO1 (configuration not stated) [MLS000065753]
> 50 | O=C1C=Cc2ccccc2/C1=C/NC12CN3CCN(CN(C3)C1)C2 [MLS000071484]
> 50 | O=C1C(=C2C(=O)c3ccccc3C2=O)Nc2ccccc21 [MLS000071738]
> 50 | Cc1ccc(NC(=O)CSc2nnc(-c3ccc(S(=O)(=O)N4CCCC4)cc3)o2)cc1C [MLS000071775]
> 50 | COc1ccc(-n2nnnc2SCC(=O)Nc2ccc3c(c2)OCCO3)c(OC)c1 [MLS000071837]
15.3 | COc1ccc(-n2c(NC(=O)c3ccco3)c(C#N)c3nc4ccccc4nc32)cc1 [MLS000079925]
17 | COc1ccc(Cn2c(C)nc3c(c2=O)c2nc4ccccc4nc2n3Cc2ccco2)cc1 [MLS000079944]
39 | Cc1ccc(-c2csc(NC(=O)c3ccno3)n2)cc1 [MLS000081820]
10.4 | CC(C)Sc1nc2sc3c(c2c2nnc(SCC(=O)NCc4ccco4)n12)CCCC3 [MLS000082957]
> 50 | Nc1nc2c(s1)CCc1c-2cnn1-c1ccccc1 [MLS000085948]
38.2 | Cc1cc(NC(=O)c2ccc(S(=O)(=O)N3CCCC3)cc2)nc2c1c(=O)oc1ccccc12 [MLS000091355]
> 50 | O=C(CSc1nc2c(cnn2-c2ccccc2)c(=O)[nH]1)c1ccc(Cl)cc1 [MLS000091816]
> 50 | Cn1c(=O)c2cc(S(=O)(=O)NCCC(=O)NCCC3=CCCCC3)ccc2n(C)c1=O [MLS000092640]

IC50 [µM] | SMILES
> 50 | COc1ccc(OC)c(NC(=O)CSc2nnc(Cc3cccn3C)n2CCc2ccccc2)c1 [MLS000092931]
> 50 | Cn1c(=O)oc2cc(S(=O)(=O)NCCC(=O)NC3CCCC3)ccc21 [MLS000093068]
22.7 | FC(F)(F)c1ccc(N2CCOCC2)c(Nc2nc3ccccc3n3cnnc23)c1 [MLS000093276]
35.9 | COC(=O)c1ccccc1NC(=O)CN1C(=O)C2CCCN2c2ncc(Cl)cc21 (configuration not stated) [MLS000094302]
> 50 | CC1CCN(S(=O)(=O)c2ccc3c(c2)c(=O)c(C(=O)NC2CCCC2)cn3C)CC1 [MLS000095109]
45.8 | CCc1ccc(NC(=O)CSc2nc3ccccc3c(=O)n2CCN2CCOCC2)cc1 [MLS000095236]
> 50 | Cc1nn(Cc2ccccc2)c(C)c1NC(=O)CSc1nc2sc3c(c2c(=O)n1C)CCC3 [MLS000096728]
> 50 | Cc1nn2c(-c3cccc(NC(=O)c4ccco4)c3)nnc2c2ccccc12 [MLS000097401]
> 50 | N#CC(C(=O)CSc1nnc(Cc2cccs2)n1C1CCCCC1)c1nc2ccccc2[nH]1 (configuration not stated) [MLS000098387]
8.85 | Cc1c(N=c2c(=O)c3ccccc3c2=O)c(=O)n(-c2ccccc2)n1C [MLS000105950]
49.2 | CCOc1ccc2noc3c2c1C(=O)c1ccccc1-3 [MLS000106837]
16.1 | COc1ccc2noc3c2c1C(=O)c1ccccc1-3 [MLS000106874]
> 50 | [O-]/[N+](=C\c1ccncc1)c1ccc(Br)cc1 [MLS000109219]
> 50 | Nc1ccc2ncccc2c1N [SMR000015817]
> 50 | COc1ccc(-n2c(SCC(=O)N3CCCC3)nc3c([nH]c4ccccc43)c2=O)cc1 [SMR000018494]
> 50 | CCCCCC1CCC(C(=O)O)CC1 (configuration not stated) [SMR000019012]
